≈ marks a conversion by molar mass, not a printed value. Where “and” joins values, the source holds several entries; their conditions need not be identical. Equal entries are not always repeated. Where two headings read alike, the source gives them in different places.
Assays:
[1] = Plasma and urine pharmacokinetics, phase IIa study in women with acute uUTI; format: in vivo, human; settings: for Cmax: read-out: Plasma Cmax, Geometric Mean (% CVb); for AUC: po, uUTI patients, read-out: urine AUC[0-tau]
Protocol: Bronchoalveolar lavage samples were collected to determine gepotidacin exposures in ELF and AM following a single 1000 mg IV infusion over 2 hours to healthy subjects. Saliva exposure was assessed in healthy volunteers following 1500 mg oral single dose. Gepotidacin exposures in urine was assessed in women with acute uUTI following 1500 mg BID oral doses for 5 days.
This phase IIa single center study evaluated the safety, tolerability, pharmacokinetics, and efficacy of oral gepotidacin 1500 mg BID for 5 days in female subjects with acute cystitis. Clean catch mid-stream urine specimens were obtained for quantitative culture by standard methods. Urine samples were taken from all participants pre-treatment (baseline) and at all post-baseline visits. All urine samples were sent to a central laboratory (PPD Global Clinical Laboratories, Highland Heights, Ky., USA) for Gram stain, quantitative culture, pathogen identification and susceptibility testing. See FIG. 1 for participant disposition and study outline.
Serial blood and urine PK sampling were performed for the first dose of study treatment on Day 1 and for the time-matched dose on Day 4. Participants took all doses of gepotidacin with food and remained in the clinic to complete a total of 10 doses. Participants were instructed to return for the TOC (Day 10 to 13) and Follow-up (Day 28±3) Visits.
For pharmacokinetic assessments, serial blood and urine samples for the assessment of gepotidacin PK concentrations were collected out to 12 hours post dose (T) following the morning dose on Days 1 and 4. CT (trough) concentrations were collected on Days 1-5. PK concentrations of gepotidacin in plasma and urine were measured using a validated LC-MS/MS bio-analytical assay.

[2] = test system: Staphylococcus saprophyticus; assay: MIC by CLSI broth microdilution in CAMHB and urine, Example 1 Method 3; format: cell-based; settings: for Mean MIC: n = 6; for MIC: Staphylococcus saprophyticus
Protocol: Antimicrobial activity was determined by broth microdilution using the CLSI recommended procedure.
The compounds were tested in serial two-fold dilutions and the minimum inhibitory concentration (MIC) was determined as the lowest concentration of the compound that inhibited visible growth.
In particular, gepotidacin was tested against 6 strains of Staphylococcus saprophyticus from the collection of isolates at Laboratory Specialists, Inc., Westlake, Ohio.
Levofloxacin was included as the comparator in the study to determine the effect of urine on the in vitro activity of gepotidacin against Staphylococcus saprophyticus. MICs were determined by broth microdilution according CLSI methods.
The data shown in the table below are results from an in vitro study conducted with the same S. saprophyticus isolates described above, to determine the effect of urine on the in vitro activity of gepotidacin and levofloxacin against S. saprophyticus. Study strains were tested for MICs (minimum inhibitory concentrations) according to reference CLSI broth microdilution method using cation-adjusted Mueller Hinton Broth (CAMHB) and with the addition of 25%, 50% and 100% urine (not pH adjusted, pH 6.42) and 100% urine (pH adjusted, 7.31 and 8.07).

Morganella morganii = assay: MIC, Example 5 Method 1; format: cell-based; settings: at least one isolate tested
viridans streptococci = assay: MIC by CLSI broth microdilution, Example 5 second study; format: cell-based; settings: 19 isolates, 2013-2014
Text: (§1) A second study tested gepotidacin by CLSI broth microdilution against bacterial isolates collected from patients with acute bacterial skin and soft tissue infections between 2013-2014. Amoxicillin/clavulanic acid, linezolid, fusidic acid, ceftriaxone, ceftaroline, vancomycin, penicillin, quinupristin/dalfopristin, erythromycin, clindamycin, meropenem, tetracycline, chloramphenicol, flucloxacillin, telavancin, daptomycin, trimethoprim/sulfamethoxazole, gentamicin, levofloxacin, tigecycline and cefuroxime were included as comparators. MICs were determined by broth microdilution according to CLSI methods.

S. anginosus = assay: as above; format: cell-based; settings: Streptococcus anginosus; 10 isolates, 2013-2014
Text: as §1

[3] = test system: S. lugdenensis, S. agalactiae, Streptococcus group G and Streptococcus group F; assay: as above; format: cell-based; settings: at least one strain of every organism listed
Text: A second study tested gepotidacin by CLSI broth microdilution against bacterial isolates collected from patients with acute bacterial skin and soft tissue infections between 2013-2014.
Amoxicillin/clavulanic acid, linezolid, fusidic acid, ceftriaxone, ceftaroline, vancomycin, penicillin, quinupristin/dalfopristin, erythromycin, clindamycin, meropenem, tetracycline, chloramphenicol, flucloxacillin, telavancin, daptomycin, trimethoprim/sulfamethoxazole, gentamicin, levofloxacin, tigecycline and cefuroxime were included as comparators. MICs were determined by broth microdilution according to CLSI methods.
In addition, MICs were determined by broth microdilution according CLSI methods and all the comparators from the list above were evaluated against gram-positive aerobe organisms selected from S. lugdenensis, S. agalactiae, Streptococcus group G and Streptococcus group F.

Providencia rettgeri = assay: MIC, Example 5 Method 1; format: cell-based; settings: at least one isolate tested

With O=c1ccc2ncc(=O)n3c2n1C[C@H]3CN1CCC(NCc2cc3c(cn2)OCCC3)CC1 [gepotidacin, (2R)-2-({4-[(3,4-dihydro-2H-pyrano[2,3-c]pyridin-6-ylmethyl)amino]-1-piperidinyl}methyl)-1,2-dihydro-3H,8H-2a,5,8a-triazaacenaphthylene-3,8-dione] the “accumulation in plasma following BID dosing (based on AUC)” value ([1]; 1500 mg BID oral) was 1.4 fold, the “dose excreted in urine over the 12-hour dosing interval” value ([1]; Day 1) was “Approximately 20%” and the “Plasma CT, Geometric Mean (% CVb)” value ([1]; Day 4) was 0.851 (41.1) [n = 21] μg/mL. The “Urine CT, Geometric Mean (% CVb)” value ([1]; Day 4) was 327 (248.7) [n = 21] μg/mL, the “dose excreted in urine over the 12-hour dosing interval” value ([1]; Day 4) was 31% and the “Steady state attained by” value ([1]; based on trough plasma concentrations) was at most 3 days. The concentration at 12 h ([1]; female, human, in vivo, over the 12-hour dosing interval, 1500 mg BID oral, read-out: minimum / steady-state trough urine concentrations (remained above a MIC of)) was over 4 µg/mL, the AUC(0-t) ([1]; female, human, plasma, oral, 1500 mg, Day 1, read-out: Plasma AUC(0-T), Geometric Mean (% CVb)) was 20.2 µg·h/mL and the Cmax ([1]; female, human, plasma, oral, 1500 mg, Day 1) was 5.89 µg/mL. The AUC(0-t) ([1]; female, human, plasma, oral, 1500 mg, Day 4, read-out: Plasma AUC(0-T), Geometric Mean (% CVb)) was 29.3 µg·h/mL, the Cmax ([1]; female, human, plasma, oral, 1500 mg, Day 4) was 8.44 µg/mL and the Tmax ([1]; female, human, plasma, oral, 1500 mg, plasma, Day 1, read-out: median Tmax) was 1.5 h. The Tmax ([1]; female, human, plasma, oral, 1500 mg, plasma, Day 4, read-out: median Tmax) was 1.92 h, the Tmax ([1]; female, human, plasma, oral, 1500 mg, plasma, Days 1 and 4, read-out: median Tmax values) was 1.5 to 1.92 h and the half-life ([1]; female, human, plasma, oral, 1500 mg, read-out: effective elimination half-life (converted)) was 6.6 h. The AUC(0-t) ([1]; female, human, urine, oral, 1500 mg, Day 1, read-out: Urine AUC(0-T), Geometric Mean (% CVb)) was 3740 µg·h/mL, the AUC(0-t) ([1]; female, human, urine, oral, 1500 mg, Day 4, read-out: Urine AUC(0-T), Geometric Mean (% CVb)) was 5970 µg·h/mL and the AUC(0-t) ([1]; female, human, urine, oral, 1500 mg, steady state, Day 4, read-out: Urinary AUC(0-24)) was 11900 µg·h/mL. The Kp ([1]; female, human, urine, oral, 1500 mg, read-out: Steady-state urine exposures (AUC[0-24]) exceeded free plasma exposures by) was about 300, the AUC ([1]; female, human, urine, 1500 mg, Day 1, 1500 mg BID oral) was 3740 µg·h/mL and the AUC ([1]; female, human, urine, 1500 mg, Day 4, 1500 mg BID oral) was 5970 µg·h/mL. For the same compound, the “Urine Ctau” value ([1]; from Day 3 onwards, 1500 mg BID oral) was 322 to 352 µg/mL, the renal excretion ([1]; healthy subjects (comparison)) was 7.5 % of dose and the “free plasma AUC(0-24)” value ([1]; steady state, Day 4) was 39.4 µg·h/mL and 39.3 µg·h/mL. For the same compound, the renal excretion ([1]; uUTI participants) was 20 % of dose, the MIC range ([2]; 3 isolates of methicillin-resistant S. saprophyticus) was 0.06 to 0.5 mg/L and the MIC range ([2]; 3 isolates of methicillin-susceptible S. saprophyticus) was 0.03 to 0.5 mg/L. The “Mean Dilution Difference” value ([2]; 25% Urine (pH 7.09) vs CAMHB) was 0.00, the Mean difference ([2]; 25% Urine (pH 7.09) vs CAMHB) was 0.00 and the “N(%) ± 1 dilution” value ([2]; 25% Urine (pH 7.09) vs CAMHB) was 6 (100%). For the same compound, the “N(%) ± 2 dilution” value ([2]; 25% Urine (pH 7.09) vs CAMHB) was 6 (100%), the Mean MIC ([2]; 25% Urine (pH 7.09)) was 0.11 mg/L and the “Mean Dilution Difference” value ([2]; 50% Urine (6.99) vs CAMHB) was 0.00. The Mean difference ([2]; 50% Urine (6.99) vs CAMHB) was 0.00, the “N(%) ± 1 dilution” value ([2]; 50% Urine (6.99) vs CAMHB) was 6 (100%) and the “N(%) ± 2 dilution” value ([2]; 50% Urine (6.99) vs CAMHB) was 6 (100%). The Mean MIC ([2]; 50% Urine (6.99)) was 0.11 mg/L, the “Mean Dilution Difference” value ([2]; 100% Urine (pH 6.42) vs CAMHB) was 1.18 and the Mean difference ([2]; 100% Urine (pH 6.42) vs CAMHB) was 0.14. For the same compound, the “N(%) ± 1 dilution” value ([2]; 100% Urine (pH 6.42) vs CAMHB) was 4 (66.7%), the “N(%) ± 2 dilution” value ([2]; 100% Urine (pH 6.42) vs CAMHB) was 6 (100%) and the Mean MIC ([2]; 100% Urine (pH 6.42)) was 0.24 mg/L. The “Mean Dilution Difference” value ([2]; 100% Urine (pH 7.31) vs CAMHB) was 1.54, the Mean difference ([2]; 100% Urine (pH 7.31) vs CAMHB) was 0.21 and the “N(%) ± 1 dilution” value ([2]; 100% Urine (pH 7.31) vs CAMHB) was 3 (50%). The “N(%) ± 2 dilution” value ([2]; 100% Urine (pH 7.31) vs CAMHB) was 4 (66.7%), the Mean MIC ([2]; 100% Urine (pH 7.31)) was 0.31 mg/L and the “Mean Dilution Difference” value ([2]; 100% Urine (pH 8.07) vs CAMHB) was 1.36. The Mean difference ([2]; 100% Urine (pH 8.07) vs CAMHB) was 0.17, the “N(%) ± 1 dilution” value ([2]; 100% Urine (pH 8.07) vs CAMHB) was 3 (50%) and the “N(%) ± 2 dilution” value ([2]; 100% Urine (pH 8.07) vs CAMHB) was 5 (83.3%). It also gave a Mean MIC ([2]; 100% Urine (pH 8.07)) of 0.28 mg/L, a Mean MIC ([2]; CAMHB (ref. method, pH 7.2)) of 0.11 mg/L and an MIC ([2]; read-out: MICs, heading: MICs, methicillin-susceptible and methicillin-resistant isolates tested (conclusion)) of at most 0.5 mg/L. For the same compound, the MIC ([2]; at least one strain of methicillin-susceptible or methicillin-resistant S. saprophyticus, read-out: MIC) was at most 0.5 mg/L, the “MIC fold lower than levofloxacin” value ([2]; each of the methicillin-resistant S. saprophyticus) was 4 fold and the “mean dilution differences (range)” value ([2]; gepotidacin in 100% urine (conclusion)) was 1.18-1.54. For the same compound, the “MIC fold lower than levofloxacin” value ([2]; methicillin-susceptible S. saprophyticus) was 8-32 fold, the MIC (Morganella morganii) was 4 mg/L (≈ 8.92 µM) and the MIC90 (viridans streptococci) was 0.5 mg/L (≈ 1.11 µM). For the same compound, the MIC90 (S. anginosus) was 1 mg/L (≈ 2.23 µM), the MIC [3] was at most 2 mg/L and the MIC (Providencia rettgeri) was 8 mg/L (≈ 17.8 µM).
